Assay results from ChEMBL document CHEMBL1132086, “Total synthesis of an antioxidant isolated from yeast via palladium-catalyzed coupling and its application for related compounds” (Bioorg Med Chem Lett, 1999).

Species on record: Cavia porcellus
Experiment: Antioxidative activity was evaluated by using the lipid peroxidation of guinea pig liver microsomes
Format: functional

SMILES | IC50
COc1c2c(cc(O)c1-c1ccc(-c3ccccc3)cc1)OCO2 | 107 µM
COc1c2c(cc(O)c1-c1ccc(C)cc1)OCO2 | 65 µM
COc1c2c(cc(O)c1-c1cc3ccccc3o1)OCO2 | 98 µM
COc1ccc(-c2c(O)cc3c(c2OC)OCO3)cc1 | 56 µM
COc1c2c(cc(O)c1-c1cccs1)OCO2 | 44 µM
COc1c2c(cc(O)c1-c1ccccc1)OCO2 | 83 µM
Cc1c(C)c2c(c(C)c1O)CC[C@@](C)(CCC[C@H](C)CCC[C@H](C)CCCC(C)C)O2 [ALPHA-TOCOPHEROL] | 280 µM
CCCOC(=O)c1cc(O)c(O)c(O)c1 [PROPYL GALLATE] | 50 µM
